Test results: ChEMBL document CHEMBL4507276 (2021)

Key:
[1] = test system: Receptor-type tyrosine-protein kinase FLT3 (Homo sapiens), P36888 [UNDEFINED MUTATION]; conditions: Compound concentration 1000.0 nM
[2] = biological target: Tyrosine-protein kinase Fes/Fps (Homo sapiens) (UniProt P07332); conditions: Compound concentration 1000.0 nM
[3] = biological target: Cyclin-G-associated kinase (Homo sapiens) (UniProt O14976); conditions: Compound concentration 1000.0 nM
[4] = biological target: Myosin light chain kinase 2, skeletal/cardiac muscle (Homo sapiens) (UniProt Q9H1R3); conditions: Compound concentration 1000.0 nM
[5] = biological target: Ephrin type-A receptor 7 (Homo sapiens) (UniProt Q15375); conditions: Compound concentration 1000.0 nM
[6] = biological target: T1, Alpha-1B adrenergic receptor (Homo sapiens) (UniProt P35368); conditions: Compound concentration 10.0 uM
T1 sequence (whole entry): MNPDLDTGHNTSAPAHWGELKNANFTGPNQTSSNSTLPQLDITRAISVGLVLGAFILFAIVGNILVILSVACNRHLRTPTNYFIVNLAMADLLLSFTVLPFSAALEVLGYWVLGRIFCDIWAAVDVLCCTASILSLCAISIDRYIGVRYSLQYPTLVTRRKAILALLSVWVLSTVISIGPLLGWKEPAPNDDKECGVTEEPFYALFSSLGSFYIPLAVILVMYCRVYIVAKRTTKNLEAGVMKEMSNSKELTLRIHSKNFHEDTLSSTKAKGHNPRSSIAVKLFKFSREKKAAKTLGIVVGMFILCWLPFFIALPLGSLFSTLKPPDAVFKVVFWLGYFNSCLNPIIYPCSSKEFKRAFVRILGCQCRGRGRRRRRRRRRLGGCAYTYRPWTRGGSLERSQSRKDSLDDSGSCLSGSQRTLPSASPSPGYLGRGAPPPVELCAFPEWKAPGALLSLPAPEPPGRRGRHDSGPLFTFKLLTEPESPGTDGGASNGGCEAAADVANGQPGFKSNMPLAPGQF

[7] = biological target: T2, Alpha-2A adrenergic receptor (Homo sapiens) (UniProt P08913); conditions: Compound concentration 10.0 uM
T2 sequence (whole entry): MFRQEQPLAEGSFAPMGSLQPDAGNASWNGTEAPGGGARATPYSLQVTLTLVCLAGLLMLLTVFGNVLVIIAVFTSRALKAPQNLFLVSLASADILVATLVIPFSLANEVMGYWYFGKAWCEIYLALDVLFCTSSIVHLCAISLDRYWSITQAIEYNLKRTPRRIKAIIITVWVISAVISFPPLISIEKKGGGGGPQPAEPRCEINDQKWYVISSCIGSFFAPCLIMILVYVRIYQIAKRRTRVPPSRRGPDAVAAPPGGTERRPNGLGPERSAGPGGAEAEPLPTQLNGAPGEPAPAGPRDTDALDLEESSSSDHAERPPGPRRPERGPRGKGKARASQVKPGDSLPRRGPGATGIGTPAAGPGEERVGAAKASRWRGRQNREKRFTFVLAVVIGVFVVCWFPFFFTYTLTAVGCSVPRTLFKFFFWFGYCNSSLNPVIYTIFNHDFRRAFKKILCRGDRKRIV

[8] = biological target: Serine/threonine-protein kinase PAK 1 (Homo sapiens) (UniProt Q13153); conditions: Compound concentration 1000.0 nM
[9] = biological target: Serine/threonine-protein kinase SIK2 (Homo sapiens) (UniProt Q9H0K1); conditions: Compound concentration 1000.0 nM
[10] = test system: Tyrosine-protein kinase ABL1 (Homo sapiens), P00519 [Q252H]; conditions: Compound concentration 1000.0 nM
[11] = biological target: Non-receptor tyrosine-protein kinase TNK1 (Homo sapiens) (UniProt Q13470); conditions: Compound concentration 1000.0 nM
[12] = biological target: Serine/threonine-protein kinase PRP4 homolog (Homo sapiens) (UniProt Q13523); conditions: Compound concentration 1000.0 nM
[13] = test system: Epidermal growth factor receptor (Homo sapiens), P00533 [G719C]; conditions: Compound concentration 1000.0 nM
[14] = biological target: T3, Serine/threonine-protein kinase Nek1 (Homo sapiens) (UniProt Q96PY6); conditions: Compound concentration 1000.0 nM
T3 sequence (whole entry): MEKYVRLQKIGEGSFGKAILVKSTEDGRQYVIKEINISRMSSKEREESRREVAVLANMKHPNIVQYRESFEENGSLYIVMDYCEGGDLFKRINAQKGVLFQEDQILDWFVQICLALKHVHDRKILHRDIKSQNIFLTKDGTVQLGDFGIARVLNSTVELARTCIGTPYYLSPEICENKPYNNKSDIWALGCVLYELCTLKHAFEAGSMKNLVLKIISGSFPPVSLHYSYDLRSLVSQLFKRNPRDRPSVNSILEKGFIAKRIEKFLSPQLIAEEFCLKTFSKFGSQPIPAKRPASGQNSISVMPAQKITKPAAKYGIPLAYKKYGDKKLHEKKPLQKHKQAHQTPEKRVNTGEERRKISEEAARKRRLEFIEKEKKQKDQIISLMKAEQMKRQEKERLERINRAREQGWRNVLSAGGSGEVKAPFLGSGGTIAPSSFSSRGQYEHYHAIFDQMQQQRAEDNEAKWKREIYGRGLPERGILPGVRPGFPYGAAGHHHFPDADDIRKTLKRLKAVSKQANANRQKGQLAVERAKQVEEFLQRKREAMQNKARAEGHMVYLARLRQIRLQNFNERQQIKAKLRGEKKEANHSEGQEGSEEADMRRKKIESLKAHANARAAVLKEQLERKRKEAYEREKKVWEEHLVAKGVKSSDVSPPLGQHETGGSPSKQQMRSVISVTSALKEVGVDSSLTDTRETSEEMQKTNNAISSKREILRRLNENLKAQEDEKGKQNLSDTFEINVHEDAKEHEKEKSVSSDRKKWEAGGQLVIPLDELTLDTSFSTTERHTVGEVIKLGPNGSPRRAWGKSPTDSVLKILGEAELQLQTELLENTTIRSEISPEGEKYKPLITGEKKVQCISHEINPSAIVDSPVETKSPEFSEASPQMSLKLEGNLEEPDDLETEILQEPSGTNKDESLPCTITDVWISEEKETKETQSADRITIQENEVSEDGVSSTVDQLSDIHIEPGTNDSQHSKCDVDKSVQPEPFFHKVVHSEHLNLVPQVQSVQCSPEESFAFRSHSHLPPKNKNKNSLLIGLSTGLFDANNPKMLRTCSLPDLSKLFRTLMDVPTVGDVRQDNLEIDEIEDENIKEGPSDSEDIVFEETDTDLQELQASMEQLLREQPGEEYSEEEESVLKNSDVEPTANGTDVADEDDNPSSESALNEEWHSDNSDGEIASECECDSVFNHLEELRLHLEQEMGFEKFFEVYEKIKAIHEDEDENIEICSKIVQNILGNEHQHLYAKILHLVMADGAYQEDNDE

Chain of Serine/threonine-protein kinase PAK 1 (Homo sapiens) (Q13153 whole entry): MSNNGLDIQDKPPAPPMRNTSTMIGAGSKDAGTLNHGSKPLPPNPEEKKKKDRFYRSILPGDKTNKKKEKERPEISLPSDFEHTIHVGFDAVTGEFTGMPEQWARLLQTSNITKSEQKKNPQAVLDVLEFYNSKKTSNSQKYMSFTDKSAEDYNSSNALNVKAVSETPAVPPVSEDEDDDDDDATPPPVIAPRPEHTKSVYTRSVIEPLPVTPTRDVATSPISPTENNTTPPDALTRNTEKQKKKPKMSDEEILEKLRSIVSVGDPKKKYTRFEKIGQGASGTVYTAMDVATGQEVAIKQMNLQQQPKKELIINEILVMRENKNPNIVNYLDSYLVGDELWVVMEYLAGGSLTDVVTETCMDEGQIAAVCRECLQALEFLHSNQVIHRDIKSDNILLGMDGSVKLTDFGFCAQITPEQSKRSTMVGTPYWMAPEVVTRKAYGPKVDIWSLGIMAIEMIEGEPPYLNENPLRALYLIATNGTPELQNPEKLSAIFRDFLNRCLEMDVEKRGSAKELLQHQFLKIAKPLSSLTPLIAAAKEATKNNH
Chain of Tyrosine-protein kinase Fes/Fps (Homo sapiens) (P07332 whole entry): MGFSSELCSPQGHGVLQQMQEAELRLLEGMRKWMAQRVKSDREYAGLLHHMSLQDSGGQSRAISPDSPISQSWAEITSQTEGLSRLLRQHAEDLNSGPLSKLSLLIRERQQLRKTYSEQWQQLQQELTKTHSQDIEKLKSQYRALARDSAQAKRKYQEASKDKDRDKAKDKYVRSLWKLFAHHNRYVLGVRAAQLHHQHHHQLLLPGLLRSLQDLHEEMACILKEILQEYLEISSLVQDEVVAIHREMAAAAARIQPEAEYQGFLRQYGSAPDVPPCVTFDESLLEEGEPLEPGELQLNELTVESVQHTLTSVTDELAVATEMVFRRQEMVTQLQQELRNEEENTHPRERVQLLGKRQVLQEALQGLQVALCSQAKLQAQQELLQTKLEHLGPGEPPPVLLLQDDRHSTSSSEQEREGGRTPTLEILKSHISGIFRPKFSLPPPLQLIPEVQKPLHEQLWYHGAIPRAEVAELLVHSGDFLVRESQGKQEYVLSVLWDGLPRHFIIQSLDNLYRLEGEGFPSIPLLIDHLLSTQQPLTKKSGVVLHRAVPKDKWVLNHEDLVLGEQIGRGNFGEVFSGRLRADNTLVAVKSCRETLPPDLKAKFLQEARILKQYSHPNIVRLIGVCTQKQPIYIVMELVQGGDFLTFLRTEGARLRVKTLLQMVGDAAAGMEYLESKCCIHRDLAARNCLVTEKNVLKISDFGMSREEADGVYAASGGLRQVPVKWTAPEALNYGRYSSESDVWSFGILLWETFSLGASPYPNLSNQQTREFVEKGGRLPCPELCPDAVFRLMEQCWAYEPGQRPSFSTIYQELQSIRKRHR
Chain of Cyclin-G-associated kinase (Homo sapiens) (O14976 whole entry): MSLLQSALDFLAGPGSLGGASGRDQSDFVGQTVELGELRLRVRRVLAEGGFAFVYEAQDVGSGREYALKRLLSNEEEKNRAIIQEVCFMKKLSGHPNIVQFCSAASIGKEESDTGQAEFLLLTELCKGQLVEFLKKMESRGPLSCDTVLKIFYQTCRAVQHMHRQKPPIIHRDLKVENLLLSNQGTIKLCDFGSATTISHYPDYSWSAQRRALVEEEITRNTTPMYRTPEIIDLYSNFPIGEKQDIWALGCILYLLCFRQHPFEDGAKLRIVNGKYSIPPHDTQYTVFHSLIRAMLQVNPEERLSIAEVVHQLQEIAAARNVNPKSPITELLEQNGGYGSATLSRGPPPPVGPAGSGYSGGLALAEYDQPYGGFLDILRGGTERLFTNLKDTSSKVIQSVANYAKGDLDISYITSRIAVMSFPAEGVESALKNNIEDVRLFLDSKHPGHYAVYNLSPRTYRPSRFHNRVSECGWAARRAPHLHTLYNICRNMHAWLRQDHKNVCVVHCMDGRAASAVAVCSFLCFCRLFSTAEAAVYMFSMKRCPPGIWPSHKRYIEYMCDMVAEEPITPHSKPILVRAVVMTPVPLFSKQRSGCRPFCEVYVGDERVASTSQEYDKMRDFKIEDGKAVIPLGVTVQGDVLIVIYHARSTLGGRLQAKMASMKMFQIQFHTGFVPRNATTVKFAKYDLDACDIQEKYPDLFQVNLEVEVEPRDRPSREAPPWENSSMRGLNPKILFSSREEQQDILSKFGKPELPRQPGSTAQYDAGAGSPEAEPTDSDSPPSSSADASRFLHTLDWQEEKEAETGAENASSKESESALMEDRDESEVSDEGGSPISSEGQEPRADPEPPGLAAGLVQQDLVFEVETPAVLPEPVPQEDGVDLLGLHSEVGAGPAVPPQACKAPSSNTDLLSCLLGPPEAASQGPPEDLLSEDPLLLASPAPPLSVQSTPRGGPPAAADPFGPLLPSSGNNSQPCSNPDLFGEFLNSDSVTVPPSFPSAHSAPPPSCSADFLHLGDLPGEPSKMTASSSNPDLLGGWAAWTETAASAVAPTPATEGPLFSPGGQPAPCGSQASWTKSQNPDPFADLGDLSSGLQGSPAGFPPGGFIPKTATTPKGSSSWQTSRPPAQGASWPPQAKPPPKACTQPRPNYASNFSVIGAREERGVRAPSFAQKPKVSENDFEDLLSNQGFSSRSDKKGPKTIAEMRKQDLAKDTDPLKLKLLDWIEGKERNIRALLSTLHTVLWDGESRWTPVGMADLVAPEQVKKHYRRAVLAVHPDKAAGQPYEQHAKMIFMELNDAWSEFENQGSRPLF
Chain of Receptor-type tyrosine-protein kinase FLT3 (Homo sapiens), P36888 [UNDEFINED MUTATION] (P36888 whole entry, looked up, change not shown): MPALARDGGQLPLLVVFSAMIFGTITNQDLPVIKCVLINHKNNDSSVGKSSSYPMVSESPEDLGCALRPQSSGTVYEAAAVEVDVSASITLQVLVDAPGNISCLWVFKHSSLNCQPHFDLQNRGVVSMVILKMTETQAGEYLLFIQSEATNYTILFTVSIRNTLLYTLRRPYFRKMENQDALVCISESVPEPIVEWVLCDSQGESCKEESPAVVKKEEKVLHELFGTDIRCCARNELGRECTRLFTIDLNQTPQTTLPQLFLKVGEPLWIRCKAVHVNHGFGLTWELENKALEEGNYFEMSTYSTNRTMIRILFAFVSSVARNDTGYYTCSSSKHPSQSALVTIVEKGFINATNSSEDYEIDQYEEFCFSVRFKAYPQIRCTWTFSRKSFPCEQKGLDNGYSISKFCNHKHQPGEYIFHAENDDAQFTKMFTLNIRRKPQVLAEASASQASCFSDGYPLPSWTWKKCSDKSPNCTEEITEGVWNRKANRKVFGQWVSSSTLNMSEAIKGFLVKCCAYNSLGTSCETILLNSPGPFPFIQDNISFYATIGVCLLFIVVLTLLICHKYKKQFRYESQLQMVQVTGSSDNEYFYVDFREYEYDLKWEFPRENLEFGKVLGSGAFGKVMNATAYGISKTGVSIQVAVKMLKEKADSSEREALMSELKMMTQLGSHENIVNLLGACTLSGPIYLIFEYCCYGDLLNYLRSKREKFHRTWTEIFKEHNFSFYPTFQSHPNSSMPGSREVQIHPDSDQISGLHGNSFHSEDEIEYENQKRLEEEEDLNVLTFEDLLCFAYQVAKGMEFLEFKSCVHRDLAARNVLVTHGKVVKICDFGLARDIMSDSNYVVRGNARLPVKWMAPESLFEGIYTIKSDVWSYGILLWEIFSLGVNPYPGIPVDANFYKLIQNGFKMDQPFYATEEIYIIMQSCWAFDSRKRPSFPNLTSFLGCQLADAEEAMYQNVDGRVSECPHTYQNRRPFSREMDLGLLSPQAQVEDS
Chain of Serine/threonine-protein kinase SIK2 (Homo sapiens) (Q9H0K1 whole entry, looked up): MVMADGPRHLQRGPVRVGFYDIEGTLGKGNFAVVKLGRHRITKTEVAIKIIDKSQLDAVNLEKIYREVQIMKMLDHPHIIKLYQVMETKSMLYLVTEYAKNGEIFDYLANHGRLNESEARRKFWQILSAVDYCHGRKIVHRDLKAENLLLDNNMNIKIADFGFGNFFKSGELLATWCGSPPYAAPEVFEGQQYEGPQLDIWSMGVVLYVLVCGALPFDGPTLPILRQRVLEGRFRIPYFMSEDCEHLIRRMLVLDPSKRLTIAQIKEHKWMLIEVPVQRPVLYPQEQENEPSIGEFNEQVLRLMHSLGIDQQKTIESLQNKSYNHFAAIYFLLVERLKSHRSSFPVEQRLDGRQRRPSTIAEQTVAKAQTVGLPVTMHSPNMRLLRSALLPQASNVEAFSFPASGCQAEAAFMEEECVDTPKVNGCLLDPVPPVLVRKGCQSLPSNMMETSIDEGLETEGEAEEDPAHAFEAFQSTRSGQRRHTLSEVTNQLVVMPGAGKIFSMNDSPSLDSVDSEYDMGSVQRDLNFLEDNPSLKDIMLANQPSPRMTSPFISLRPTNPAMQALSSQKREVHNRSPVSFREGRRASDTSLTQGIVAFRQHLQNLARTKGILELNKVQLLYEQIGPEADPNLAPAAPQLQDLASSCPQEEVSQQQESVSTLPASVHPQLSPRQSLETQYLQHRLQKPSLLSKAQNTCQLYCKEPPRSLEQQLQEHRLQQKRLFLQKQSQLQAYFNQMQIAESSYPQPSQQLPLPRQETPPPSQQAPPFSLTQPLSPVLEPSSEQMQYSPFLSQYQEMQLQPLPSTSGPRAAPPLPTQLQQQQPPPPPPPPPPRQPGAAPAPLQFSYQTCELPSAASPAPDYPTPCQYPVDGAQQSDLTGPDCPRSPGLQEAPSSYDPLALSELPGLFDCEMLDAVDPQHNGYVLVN

CN(C)C(=O)Cn1cc(-c2nc(C3(c4ccc(-c5cnc(N)nc5)cc4)CC3)no2)cn1 [BI 0153]
inactive: residual activity [1] 100% | residual activity [2] 100% | residual activity [3] 100% | residual activity [4] 90% | residual activity [5] 92% | inhibition [6] 5.11% | inhibition [7] 22.4% | residual activity [8] 100% | residual activity [9] 100% | residual activity [10] 100% | residual activity [11] 96% | residual activity [12] 87% | residual activity [13] 100% | residual activity [14] 100%

CN(C)C(=O)Cn1cc(-c2nc([C@@](C)(c3ccc(-c4cnc(N)nc4)cc3)C3CC3)no2)cn1 [BI 665915]
inactive: residual activity [1] 100% | residual activity [2] 100% | residual activity [3] 100% | residual activity [4] 100% | residual activity [5] 98% | inhibition [6] 2.84% | inhibition [7] -3.33% | residual activity [8] 100% | residual activity [9] 93% | residual activity [10] 83% | residual activity [11] 100% | residual activity [12] 86% | residual activity [13] 85% | residual activity [14] 100%
